# Reference: patent US20230140216A1, “COMBINATION THERAPY FOR TREATING MPS1” (GAIN THERAPEUTICS SA, priority 2020, published 2023)
# Target: T1, Recombinant human α-L-iduronidase protein (Homo sapiens, UniProt P35475)
# T1 construct: purchased R&D
# T1 sequence (P35475 28-653): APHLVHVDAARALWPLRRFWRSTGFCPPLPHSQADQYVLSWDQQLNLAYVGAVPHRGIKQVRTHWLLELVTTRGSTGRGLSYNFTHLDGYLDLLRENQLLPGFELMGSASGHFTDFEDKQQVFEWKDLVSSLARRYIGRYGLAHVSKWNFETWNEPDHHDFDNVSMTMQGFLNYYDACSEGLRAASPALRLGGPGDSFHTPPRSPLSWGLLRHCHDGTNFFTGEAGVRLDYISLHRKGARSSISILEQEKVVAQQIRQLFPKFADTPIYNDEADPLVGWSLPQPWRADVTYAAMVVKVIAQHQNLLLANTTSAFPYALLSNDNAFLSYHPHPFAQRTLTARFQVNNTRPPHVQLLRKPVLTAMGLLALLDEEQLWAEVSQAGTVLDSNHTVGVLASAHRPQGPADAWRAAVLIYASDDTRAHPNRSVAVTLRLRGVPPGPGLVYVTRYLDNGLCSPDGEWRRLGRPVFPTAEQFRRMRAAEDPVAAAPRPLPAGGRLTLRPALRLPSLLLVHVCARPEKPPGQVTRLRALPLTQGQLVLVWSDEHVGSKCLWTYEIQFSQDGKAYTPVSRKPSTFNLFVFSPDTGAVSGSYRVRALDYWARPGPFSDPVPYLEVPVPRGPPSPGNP
# Assay: Differential scanning fluorimetry (DSF) thermal stabilization;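 note: Classes count stabilization of α-L-iduronidase despite the GALC label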
# Type: binding
# Settings: commercially available Examples 8-37; ΔTm class
# Protocol: The capacity of Compounds of the Disclosure to stabilize α-L-iduronidase was assessed by differential scanning fluorimetry technique. The thermal denaturation of purified human native enzyme was monitored in the presence of the extrinsic fluorescent probe SYPRO Orange (Sigma-Aldrich, St. Louis, MO). The tested compounds were dissolved in 100% DMSO and diluted into the protein buffer to achieve final concentrations of 1% DMSO.
# Recombinant human α-L-iduronidase protein (purchased from R&D) 12.5 µL of 1.5 µM in 100 mM Hepes 20 mM MgCl2 pH 7 (protein final concentration 0.75 µM) with Sypro Orange 10X and 12.5 µl of the different compound solutions were dispensed into 96-well PCR-plates. The intensity of SYPRO Orange fluorescence after a systematic increase of temperature was monitored in the Roche LightCycler® 480 II device (Roche Diagnostics).
# The capacity to stabilize α-L-iduronidase is denoted as follows: • ΔTm GALC > 1 is shown as A; • ΔTm GALC between 0.5 and 1 is shown as B; • ΔTm GALC between 0.1 and 0.5 is shown as C; and • ΔTm GALC less than 0.1 is shown as D.
row,SMILES,DSF Activity range
1,"CN(CC(=O)Nc1cccc(F)c1)Cc1nc2ccsc2c(=O)[nH]1 [Example 9, N-(3-fluorophenyl)-2-(methyl((4-oxo-3,4-dihydrothieno[3,2-d]pyrimidin-2-yl)methyl)amino)acetamide]",A (ΔTm GALC > 1 is shown as A)
2,"CCN(CC(=O)Nc1cccc(OC)c1)Cc1nc2ccsc2c(=O)[nH]1 [Example 10, 2-(ethyl((4-oxo-3,4-dihydrothieno[3,2-d]pyrimidin-2-yl)methyl)amino)-N-(3-methoxyphenyl)acetamide]",C (ΔTm GALC between 0.1 and 0.5 is shown as C)
3,"CCCN(CC(=O)Nc1ccc(F)cc1F)Cc1nc2ccsc2c(=O)[nH]1 [Example 11, N-(2,4-difluorophenyl)-2-(((4-oxo-3,4-dihydrothieno[3,2-d]pyrimidin-2-yl)methyl)(propyl)amino)acetamide]",B (ΔTm GALC between 0.5 and 1 is shown as B)
4,"CN(CC(=O)Nc1ccccc1Cl)Cc1nc2ccsc2c(=O)[nH]1 [Example 12, N-(2-chlorophenyl)-2-(methyl((4-oxo-3,4-dihydrothieno[3,2-d]pyrimidin-2-yl)methyl)amino)acetamide]",B (ΔTm GALC between 0.5 and 1 is shown as B)
5,"CCN(CC(=O)NC(C)(C)C)Cc1nc2ccsc2c(=O)[nH]1 [Example 13, N-(tert-butyl)-2-(ethyl((4-oxo-3,4-dihydrothieno[3,2-d]pyrimidin-2-yl)methyl)amino)acetamide]",D (ΔTm GALC less than 0.1 is shown as D)
6,"Cc1csc(NC(=O)CN(C)Cc2nc3ccsc3c(=O)[nH]2)n1 [Example 14, 2-(methyl((4-oxo-3,4-dihydrothieno[3,2-d]pyrimidin-2-yl)methyl)amino)-N-(4-methylthiazol-2-yl)acetamide]",A (ΔTm GALC > 1 is shown as A)
7,"CCCN(CC(=O)N1CCc2ccccc21)Cc1nc2ccsc2c(=O)[nH]1 [Example 15, 2-(((2-(indolin-1-yl)-2-oxoethyl)(propyl)amino)methyl)thieno[3,2-d]pyrimidin-4(3H)-one]",D (ΔTm GALC less than 0.1 is shown as D)
8,"CCN(CC(=O)Nc1c(Cl)cccc1Cl)Cc1nc2ccccc2c(=O)[nH]1 [Example 16, N-(2,6-dichlorophenyl)-2-(ethyl((4-oxo-3,4-dihydroquinazolin-2-yl)methyl)amino)acetamide]",B (ΔTm GALC between 0.5 and 1 is shown as B)
9,"COCCN(CC(=O)Nc1ccc(C)cc1)Cc1nc2ccccc2c(=O)[nH]1 [Example 17, 2-((2-methoxyethyl)((4-oxo-3,4-dihydroquinazolin-2-yl)methyl)amino)-N-(p-tolyl)acetamide]",B (ΔTm GALC between 0.5 and 1 is shown as B)
10,"CN(CC(=O)Nc1cccc2ccccc12)Cc1nc2ccccc2c(=O)[nH]1 [Example 18, 2-(methyl((4-oxo-3,4-dihydroquinazolin-2-yl)methyl)amino)-N-(naphthalen-1-yl)acetamide]",A (ΔTm GALC > 1 is shown as A)
11,"CCN(CC(=O)Nc1ccccc1)Cc1nc2ccccc2c(=O)[nH]1 [Example 19, 2-(ethyl((4-oxo-3,4-dihydroquinazolin-2-yl)methyl)amino)-N-phenylacetamide]",C (ΔTm GALC between 0.1 and 0.5 is shown as C)
12,"CCN(CC(=O)Nc1ccccc1C)Cc1nc2ccccc2c(=O)[nH]1 [Example 20, 2-(ethyl((4-oxo-3,4-dihydroquinazolin-2-yl)methyl)amino)-N-(o-tolyl)acetamide]",B (ΔTm GALC between 0.5 and 1 is shown as B)
13,"CN(CC(=O)Nc1cccc2ncccc12)Cc1nc2ccccc2c(=O)[nH]1 [Example 21, 2-(methyl((4-oxo-3,4-dihydroquinazolin-2-yl)methyl)amino)-N-(quinolin-5-yl)acetamide]",B (ΔTm GALC between 0.5 and 1 is shown as B)
14,"CCN(CC(=O)Nc1ccccc1Cl)Cc1nc2ccccc2c(=O)[nH]1 [Example 22, N-(2-chlorophenyl)-2-(ethyl((4-oxo-3,4-dihydroquinazolin-2-yl)methyl)amino)acetamide]",C (ΔTm GALC between 0.1 and 0.5 is shown as C)
15,"Cc1cccc(C)c1NC(=O)CN(C)Cc1nc2ccccc2c(=O)[nH]1 [Example 23, N-(2,6-dimethylphenyl)-2-(methyl((4-oxo-3,4-dihydroquinazolin-2-yl)methyl)amino)acetamide]",B (ΔTm GALC between 0.5 and 1 is shown as B)
16,"O=C(Nc1ccccc1)C1CCCN1Cc1nc2ccccc2c(=O)[nH]1 (centres unmarked) [Example 24, 1-((4-oxo-3,4-dihydroquinazolin-2-yl)methyl)-N-phenylpyrrolidine-2-carboxamide]",B (ΔTm GALC between 0.5 and 1 is shown as B)
17,"CCN(CC(=O)Nc1cccc2c1N=S=N2)Cc1nc2ccccc2c(=O)[nH]1 [Example 25, N-(benzo[c][1,2,5]thiadiazol-4-yl)-2-(ethyl((4-oxo-3,4-dihydroquinazolin-2-yl)methyl)amino)acetamide]",B (ΔTm GALC between 0.5 and 1 is shown as B)
18,"CCN(CC(=O)NCC(C)C)Cc1nc2ccccc2c(=O)[nH]1 [Example 26, 2-(ethyl((4-oxo-3,4-dihydroquinazolin-2-yl)methyl)amino)-N-isobutylacetamide]",B (ΔTm GALC between 0.5 and 1 is shown as B)
19,"CN(CC(=O)N(C)c1ccccc1)Cc1nc2ccccc2c(=O)[nH]1 [Example 27, N-methyl-2-(methyl((4-oxo-3,4-dihydroquinazolin-2-yl)methyl)amino)-N-phenylacetamide]",B (ΔTm GALC between 0.5 and 1 is shown as B)

# Same assay, conditions: synthetized Examples 1-7; ΔTm class
row,SMILES,DSF Activity range
1,"CN(CC(=O)N(C)c1ccccc1Cl)Cc1nc(O)c2cnn(-c3ccccc3)c2n1 [Example 1, N-(2-chlorophenyl)-2-(((4-hydroxy-1-phenyl-1H-pyrazolo[3,4-d]pyrimidin-6-yl)methyl)(methyl)amino)-N-methylacetamide]",A (ΔTm GALC > 1 is shown as A)
2,"Cc1ccccc1-n1ncc2c(O)nc(CN(C)CC(=O)N(C)c3ccccc3Cl)nc21 [Example 2, N-(2-chlorophenyl)-2-(((4-hydroxy-1-o-tolyl-1H-pyrazolo[3,4-d]pyrimidin-6-yl)methyl)(methyl)amino)-N-methylacetamide]",C (ΔTm GALC between 0.1 and 0.5 is shown as C)
3,"Cc1cccc(-n2ncc3c(O)nc(CN(C)CC(=O)N(C)c4ccccc4Cl)nc32)c1 [Example 3, N-(2-chlorophenyl)-2-(((4-hydroxy-1-m-tolyl-1H-pyrazolo[3,4-d]pyrimidin-6-yl)methyl)(methyl)amino)-N-methylacetamide]",C (ΔTm GALC between 0.1 and 0.5 is shown as C)
4,"Cc1ccc(-n2ncc3c(O)nc(CN(C)CC(=O)N(C)c4ccccc4Cl)nc32)cc1 [Example 4, N-(2-chlorophenyl)-2-(((4-hydroxy-1-p-tolyl-1H-pyrazolo[3,4-d]pyrimidin-6-yl)methyl)(methyl)amino)-N-methylacetamide]",B (ΔTm GALC between 0.5 and 1 is shown as B)
5,"COc1ccccc1-n1ncc2c(O)nc(CN(C)CC(=O)N(C)c3ccccc3Cl)nc21 [Example 5, N-(2-chlorophenyl)-2-(((4-hydroxy-1-(2-methoxyphenyl)-1H-pyrazolo[3,4-d]pyrimidin-6-yl)methyl)(methyl)amino)-N-methylacetamide]",D (ΔTm GALC less than 0.1 is shown as D)
6,"COc1cccc(-n2ncc3c(O)nc(CN(C)CC(=O)N(C)c4ccccc4Cl)nc32)c1 [Example 6, N-(2-chlorophenyl)-2-(((4-hydroxy-1-(3-methoxyphenyl)-1H-pyrazolo[3,4-d]pyrimidin-6-yl)methyl)(methyl)amino)-N-methylacetamide]",B (ΔTm GALC between 0.5 and 1 is shown as B)
7,"COc1ccc(-n2ncc3c(O)nc(CN(C)CC(=O)N(C)c4ccccc4Cl)nc32)cc1 [Example 7, N-(2-chlorophenyl)-2-(((4-hydroxy-1-(4-methoxyphenyl)-1H-pyrazolo[3,4-d]pyrimidin-6-yl)methyl)(methyl)amino)-N-methylacetamide]",C (ΔTm GALC between 0.1 and 0.5 is shown as C)
